Each structure is given as a SMILES string.

The target in one experiment is T1, human B1R (Homo sapiens, UniProt P46663).
T1 construct: expressed in transfected cells; host or cells: CHO K1 cells
T1 sequence (P46663 1-353): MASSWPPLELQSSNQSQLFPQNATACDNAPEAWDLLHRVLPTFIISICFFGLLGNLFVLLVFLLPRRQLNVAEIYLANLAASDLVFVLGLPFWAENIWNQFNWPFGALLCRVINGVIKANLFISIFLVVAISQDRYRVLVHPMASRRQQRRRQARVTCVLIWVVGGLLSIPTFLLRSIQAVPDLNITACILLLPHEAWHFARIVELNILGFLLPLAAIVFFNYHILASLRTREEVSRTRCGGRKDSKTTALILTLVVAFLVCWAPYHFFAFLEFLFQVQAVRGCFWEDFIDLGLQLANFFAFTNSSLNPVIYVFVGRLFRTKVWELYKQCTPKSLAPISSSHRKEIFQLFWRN
As to the kind of experiment: FLIPR Ca2+ functional study on bradykinin receptor 1 (hB1R CHO K1 cells). Format: cell-based. The note with it: % inhibition human B1R at 10 μM; for inhibition at 10 µM: read-out: % inh. (hum. B1R) 10 μM. How it is done:
The agonistic or antagonistic activity of substances can be quantified on the bradykinin receptor 1 (B1R) of the species human and rat using ectopically expressing cell lines (CHO K1 cells) and with the aid of a Ca^2+-sensitive dye (Fluo-4) using a fluorescent imaging plate reader (FLIPR). The indication in % activation is based on the Ca^2+ signal after addition of Lys-Des-Arg^9-bradykinin (0.5 nM) or Des-Arg^9-bradykinin (100 nM). Antagonists lead to suppression of the Ca^2+ influx after the addition of the agonist. % Inhibition compared with the maximum achievable inhibition is indicated.
The agonistic or antagonistic activity of substances can be determined on the bradykinin receptor 1 (B1R) of the species human and rat using the following assay. According to this assay, the Ca^2+ influx through the channel is quantified with the aid of a Ca^2+-sensitive dye (Fluo-4 type, Molecular Probes Europe BV, Leiden, Netherlands) using a Fluorescent Imaging Plate Reader (FLIPR, Molecular Devices, Sunnyvale, USA).
Chinese hamster ovary cells (CHO K1 cells) which have been stably transfected with the human B1R gene (hB1R cells) or with the B1R gene of the rat (rB1R cells) are used. For functional studies, the cells are plated out on black 96-well plates having a clear base (BD Biosciences, Heidelberg, Germany or Greiner, Frickenhausen, Germany) in a density of 20,000-35,000 cells/well. The cells are left overnight at 37° C. and with 5% CO2 in culture medium (hB1R cells: Nutrient Mixture Ham's F12, Gibco Invitrogen GmbH, Karlsruhe, Germany or DMEM, Sigma-Aldrich, Taufkirchen, Germany; rB1R cells: D-MEM/F12, Gibco Invitrogen GmbH, Karlsruhe, Germany), with 10 vol.% FBS (fetal bovine serum, Gibco Invitrogen GmbH, Karlsruhe, Germany or PAN Biotech GmbH, Aidenbach, Germany). On the following day, the cells are loaded for 60 minutes at 37° C. with 2.13 μM Fluo-4 (Molecular Probes Europe BV, Leiden, Netherlands) in HBSS buffer (Hank's buffered saline solution, Gibco Invitrogen GmbH, Karlsruhe, Germany) […] (Sigma-Aldrich, Taufkirchen, Germany) and 10 mM HEPES (Sigma-Aldrich, Taufkirchen, Germany). The plates are then washed twice with HBSS buffer, and HBSS buffer additionally containing 0.1% BSA (bovine serum albumin; Sigma-Aldrich, Taufkirchen, Germany), 5.6 mM glucose and 0.05% gelatin (Merck KGaA, Darmstadt, Germany) is added to the plates. After incubation for a further 20 minutes at room temperature, the plates are inserted into the FLIPR for Ca^2+ measurement. Alternatively, washing is carried out with buffer A (15 mM HEPES, 80 mM NaCl, 5 mM KCl, 1.2 mM CaCl2, 0.7 mM MgSO4, 2 g/l glucose, 2.5 mM probenecid) followed by loading with buffer A with added 2.5 μM Fluo-4 and 0.025% Pluronic F127 (Sigma-Aldrich, Taufkirchen, Germany). The cells are then washed twice with buffer A and incubated for 30 minutes at room temperature with buffer A additionally containing 0.05% BSA and 0.05% gelatin and are then inserted into the FLIPR for Ca^2+ measurement. The Ca^2+-dependent fluorescence is measured before and after the addition of substances (λex=488 nm, λem=540 nm). Quantification is carried out by measuring the highest fluorescence intensity (FC, fluorescence counts) over time.
The FLIPR protocol consists of two substance additions. Test substances (10 μM) are first pipetted onto the cells and the Ca^2+ influx is compared with the control (hB1R: Lys-Des-Arg^9-bradykinin>=50 nM; rB1R: Des-Arg^9-bradykinin 10 μM). This gives the activation in %, based on the Ca^2+ signal after addition of Lys-Des-Arg^9-bradykinin (>=50 nM) or Des-Arg^9-bradykinin (10 μM). After 10-20 minutes' incubation, Lys-Des-Arg^9-bradykinin (hB1R) or Des-Arg^9-bradykinin (rB1R) is applied in the concentration of the EC80, and the influx of Ca^2+ is likewise determined. Antagonists lead to suppression of the Ca^2+ influx. The % inhibition compared with the maximum achievable inhibition is calculated. […]

A further experiment has as its target T2, rat B1R (Rattus norvegicus, UniProt P97583).
T2 construct: expressed in transfected cells; host or cells: CHO K1 cells
T2 sequence (P97583 1-337): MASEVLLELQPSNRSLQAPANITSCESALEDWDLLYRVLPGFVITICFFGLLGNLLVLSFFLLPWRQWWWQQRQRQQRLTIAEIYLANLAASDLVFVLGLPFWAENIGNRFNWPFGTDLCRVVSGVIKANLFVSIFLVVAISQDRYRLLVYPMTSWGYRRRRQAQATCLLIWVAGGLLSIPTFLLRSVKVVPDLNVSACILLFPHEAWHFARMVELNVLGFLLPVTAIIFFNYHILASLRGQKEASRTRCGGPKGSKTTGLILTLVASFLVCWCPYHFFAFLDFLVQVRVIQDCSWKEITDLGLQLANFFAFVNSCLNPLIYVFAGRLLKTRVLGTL
As to the kind of experiment: FLIPR Ca2+ functional study on bradykinin receptor 1 (rB1R CHO K1 cells). Format: cell-based. The note with it: for inhibition at 10 µM: CHO-K1, % inhibition rat B1R at 10 μM, read-out: % inh. (rat B1R) 10 μM. In outline:
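Antagonism was calculated as % of maximal inhibition of the Ca2+ rise triggered by agonist at EC80 (Lys-Des-Arg9-bradykinin for hB1R, Des-Arg9-bradykinin for rB1R), added 10-20 min after test compound (10 μM or serial dilutions for IC50) to Fluo-4-loaded transfected CHO K1 cells on FLIPR. Duplicates or triplicates, ≥2 independent runs.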

In the case of `O=S(=O)(c1ccccc1C(F)(F)F)N(CCOc1nccc(N2CCC3(CCN(c4ccncc4)CC3)CC2)n1)C1CC1` [Example G-010, N-cyclopropyl-N-[2-[[4-[9-(4-pyridyl)-3,9-diazaspiro[5.5]undecan-3-yl]-2-pyrimidinyl]oxy]ethyl]-2-(trifluoromethyl)benzenesulfonamide], the figures for the inhibition at 10 µM on human B1R and on rat B1R were 98% and 89%, respectively.

On to `COc1cc(C)c(S(=O)(=O)N2CCC[C@H]2COc2nccc(N3CCC4(CCN(Cc5ccc(F)cc5)C4=O)CC3)n2)c(C)c1` [G_CC-051, 3-[(4-fluorophenyl)methyl]-8-[2-[[(2S)-1-(4-methoxy-2,6-dimethylphenyl)sulfonyl-2-pyrrolidinyl]methoxy]-4-pyrimidinyl]-3,8-diazaspiro[4.5]decan-4-one], for which the inhibition at 10 µM on human B1R is 38%; on rat B1R it was 98%.

On to `COc1cc(C)c(S(=O)(=O)N(CCOc2ccnc(N3CCC(Oc4ccncc4)CC3)n2)C2CC2)c(C)c1` [Example H-005, N-cyclopropyl-4-methoxy-2,6-dimethyl-N-[2-[[2-[4-(4-pyridyloxy)-1-piperidinyl]-4-pyrimidinyl]oxy]ethyl]benzenesulfonamide], for which the values for the inhibition at 10 µM on human B1R and on rat B1R were 98% and 97%, respectively.

As for `COc1cc(C)c(S(=O)(=O)N(C)CCOc2ccnc(N3CCN(c4ccncc4)CC3)n2)c(C)c1` [Example H-002], the inhibition at 10 µM on human B1R was 81%; on rat B1R, 51%.

Take `COc1cc(C)c(S(=O)(=O)N2CCC[C@H]2COc2nccc(N3CCC4(CCN(c5ccncc5)CC4)CC3)n2)c(C)c1` [G_CC-055, 9-[2-[[(2S)-1-(4-methoxy-2,6-dimethylphenyl)sulfonyl-2-pyrrolidinyl)methoxy]-4-pyrimidinyl]-3-(4-pyridyl)-3,9-diazaspiro[5.5]undecane]: the figures for the inhibition at 10 µM at human B1R and at rat B1R were 97% and 101%, respectively.

For the compound `COc1cc(C)c(S(=O)(=O)N(CCOc2nccc(N3CCC4(CC3)CCC(OCCN3CCCC3)(c3cccnc3)CC4)n2)C2CC2)c(C)c1` [Example G-023, N-cyclopropyl-4-methoxy-2,6-dimethyl-N-[2-[4-[9-pyridin-3-yl-9-(2-pyrrolidin-1-yl-ethoxy)-3-azaspiro[5.5]undecan-3-yl]-pyrimidin-2-yl]oxy-ethyl]-benzenesulfonic acid amide], the inhibition at 10 µM on human B1R amounted to 94%; on rat B1R, 107%.

In the case of `COc1cc(C)c(S(=O)(=O)N2CCC[C@H]2COc2nccc(N3CCC(O)(c4cccs4)CC3)n2)c(C)c1` [G_CC-021, 1-[2-[[(2S)-1-(4-methoxy-2,6-dimethylphenyl)sulfonyl-2-pyrrolidinyl]methoxy]-4-pyrimidinyl]-4-(2-thienyl)-4-piperidinol], the figures for the inhibition at 10 µM at human B1R and at rat B1R were 36% and 105%, respectively.

In the case of `COc1cc(C)c(S(=O)(=O)N2CCCCC2COc2nccc(N3CCN(C4CCN(C)CC4)CC3)n2)c(C)c1` (stereo not shown) [G_CC-002, 2-[[1-(4-methoxy-2,6-dimethylphenyl)sulfonyl-2-piperidinyl]methoxy]-4-[4-(1-methyl-4-piperidinyl)-1-piperazinyl]pyrimidine], the inhibition at 10 µM on human B1R was 99%; on rat B1R, 101%.

Consider `COc1cc(C)c(S(=O)(=O)N2CCC[C@H]2COc2nccc(N3CCC(Oc4ccncc4)CC3)n2)c(C)c1` [G_CC-052, 2-[[(2S)-1-(4-methoxy-2,6-dimethylphenyl)sulfonyl-2-pyrrlidinyl]methoxy]-4-[4-(4-pyridyloxy)-1-piperidinyl]pyrimidine], for which the “% inh. (hum. B1R) 10 μM” value on human B1R stood at 74%. The “% inh. (rat B1R) 10 μM” value at rat B1R (% inhibition rat B1R at 10 μM) is 99%.

For `COc1cc(C)c(S(=O)(=O)N2CCCC[C@H]2COc2nccc(N3CCC4(CCN(c5ccncc5)CC4)CC3)n2)c(C)c1` [Example G-026, 3-[2-[[(2S)-1-[(4-methoxy-2,6-dimethyl-phenyl)sulfonyl]-piperidin-2-yl]-methoxy]-pyrimidin-4-yl]-9-pyridin-4-yl-3,9-diazaspiro[5.5]undecane], the inhibition at 10 µM came to 98% at human B1R and 101% at rat B1R.

For the compound `COc1cc(C)c(S(=O)(=O)N(C)CCOc2ccnc(N3CCC(CCN4CCCC4)CC3)n2)c(C)c1` [Example H-001, 4-methoxy-N,2,6-trimethyl-N-[2-[[2-[4-(2-1-pyrrolidinylethyl)-1-piperidinyl]-4-pyrimidinyl]oxy]ethyl]benzenesulfonamide], the inhibition at 10 µM on human B1R was determined as 44%; on rat B1R, 99%.

Turning to `COc1cc(C)c(S(=O)(=O)N(CCN(C)c2cc(N3CCC4(CCN(c5ccncc5)CC4)CC3)ncn2)C2CC2)c(C)c1` [Example I-003, N-cyclopropyl-4-methoxy-2,6-dimethyl-N-[2-[methyl-[6-(9-pyridin-4-yl-3,9-diazaspiro[5.5]undecan-3-yl)-pyrimidin-4-yl]-amino]-ethyl]-benzenesulfonic acid amide], the results for the inhibition at 10 µM at human B1R and on rat B1R were 96% and 108%, respectively.

As for `COc1cc(C)c(S(=O)(=O)N2CCCCC2COc2nccc(N3CCC4(CCN(Cc5ccccc5)C4=O)CC3)n2)c(C)c1` (stereo not shown) [G_CC-040, 3-benzyl-8-[2-[[1-(4-methoxy-2,6-dimethylphenyl)sulfonyl-2-piperidinyl]methoxy]-4-pyrimidinyl]-3,8-diazaspiro[4.5]decan-4-one], the values for the inhibition at 10 µM on human B1R and on rat B1R were 57% and 99%, respectively.

Regarding `COc1cc(C)c(S(=O)(=O)N2CCC[C@H]2COc2nccc(N3CCN(C4CCN(C)CC4)CC3)n2)c(C)c1` [G_CC-036, 2-[[(2S)-1-(4-methoxy-2,6-dimethylphenyl)sulfonyl-2-pyrrolidinyl]methoxy]-4-[4-(1-methyl-4-piperidinyl)-1-piperazinyl]pyrimidine], the inhibition at 10 µM was determined as 75% on human B1R and 102% at rat B1R.

Values taken from US8269000B2, “Substituted pyrimidine and triazine compounds” (Gruenenthal GmbH, priority 2008, dated 2012).
